{"source": "patent US12704521B2", "about": "“On-site rapid quantification of tetrahydrocannabinol” (The General Hospital Corporation, priority 2020, dated 2026)", "key": {"[1]": {"experiment": "EPOCH test of oral fluid samples from cannabis users", "format": "in vivo, human", "excerpt": "Informed consent was obtained from all subjects (cannabis smoker […]). Cannabis users were asked to take saliva samples right after cannabis smoking. Specifically, they were instructed to take a disposable swab (diameter, 1 cm; length, 1.5 cm) into the mouth and roll it for about one minute. The swab was then placed into the sample processing kit. Control samples were collected in the same manner from volunteers who self-declared no history of cannabis use. For the time-course monitoring, three cannabis smokers collected saliva samples hourly after their last smoking. Cylindrical saliva swabs were purchased (SalivaBio Oral Swab, Salimetrics, USA). These swabs were cut in the middle of their height to fit into the sample processing kit. Each halved swab collected about 0.5 mL of saliva.\nNext, EPOCH was used for onsite THC detection. Oral fluid samples from recreational cannabis users (40 cannabis smokers and three THC jelly users) were collected within 10 minutes of product consumption and then tested. As a control, oral fluid samples were also assessed from non-cannabis users (13 traditional tobacco smokers and 30 non-smokers) without a history of cannabis use. […] We observed no significant difference between male and female subjects in any of the cohorts (P>0.05, two-sided Mann-Whitney test; FIG. 5C).\nWe also monitored how THC levels changed over time after cannabis smoking. In this case, oral fluid samples were collected hourly after the inhalation and subjected to the EPOCH tests."}, "[2]": {"system": "AuNPAb (THC antibody-coated gold nanoparticles)", "experiment": "isothermal titration calorimetry of binding to AuNPAb"}}}
{"compound": "CCCCCc1cc(O)c2c(c1)OC(C)(C)[C@@H]1CCC(C)=C[C@@H]21", "note": "[THC, Δ^9-tetrahydrocannabinol]", "values": [{"measurement": "oral THC concentration in all cannabis-user samples", "setting": "[1]; 43 cannabis users shortly after consumption, versus regulatory guideline", "value": "> 1", "unit": "ng/mL"}, {"measurement": "half-life of THC in saliva", "setting": "[1]; after cannabis smoking, hourly samples, three users, single-phase exponential decay", "value": 1.4, "unit": "h"}, {"measurement": "oral THC concentration (average/median)", "setting": "[1]; cannabis smokers, oral fluid collected within 10 minutes of consumption", "value": 478, "unit": "ng/mL"}, {"measurement": "half-life", "setting": "[1]; human, saliva, inhaled, after cannabis smoking, hourly samples, three users, single-phase exponential decay, read-out: half-life of THC in saliva (converted)", "value": 1.4, "unit": "h"}, {"measurement": "concentration at 6 h", "setting": "[1]; human, saliva, po, six hours after cannabis smoking, read-out: oral THC level", "value": "> 1", "unit": "ng/mL"}, {"measurement": "association constant Ka with AuNPAb", "setting": "[2]", "value": 0.074, "unit": "nM⁻¹"}]}
